Each molecule was assayed against T1, Human Factor D (Homo sapiens, UniProt P00746) (assay: Human Factor D Assay). Details: not given.
T1 construct: purified from human serum; purchased Complement Technology, Inc; host or cells: human serum (natural protein, not recombinant)
T1 sequence (P00746 26-253): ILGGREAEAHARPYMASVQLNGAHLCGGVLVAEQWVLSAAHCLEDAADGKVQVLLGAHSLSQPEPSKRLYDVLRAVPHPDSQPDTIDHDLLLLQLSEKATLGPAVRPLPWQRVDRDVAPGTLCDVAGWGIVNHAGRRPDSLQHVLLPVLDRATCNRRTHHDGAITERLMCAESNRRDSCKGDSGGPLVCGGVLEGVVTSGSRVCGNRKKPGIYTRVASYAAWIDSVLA
Type: biochemical
Summary of the method: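 Serum-purified human factor D (80 nM final) preincubated 5 min at room temperature with test compound in 50 mM Tris, 1M NaCl, pH 7.5. Z-L-Lys-SBzl substrate and DTNB then added, each at 100 μM final. IC50 from nonlinear regression of reaction rate against compound concentration.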
In the case of CC(=O)c1nn(CC(=O)N2[C@H](C(=O)Nc3nc(Br)ccc3C)C[C@@]3(CNC(=O)COCCOCCNC(=O)COCCOCCNC(=O)CC[C@H](NC(=O)CCCCCCCCCCCCCCCCC(=O)O)C(=O)O)C[C@@H]23)c2ccc(OC(=O)NC3CC3)cc12 [Compound 15, (S)-1-((1R,3S,5R)-2-(2-(3-acetyl-5-((cyclopropylcarbamoyl)oxy)-1H-indazol-1-yl)acetyl)-3-((6-bromo-3-methylpyridin-2-yl)carbamoyl)-2-azabicyclo[3.1.0]hexan-5-yl)-24-carboxy-3,12,21,26-tetraoxo-5,8,14,17-tetraoxa-2,11,20,25-tetraazatritetracontan-43-oic acid], the IC50 is reported as under 1000 nM.

Same assay, conditions: Human Factor D 80 nM, substrate Z-L-Lys-SBzl, assay of Example 3; read-out: IC50 (Stars)
With CC(=O)c1nn(CC(=O)N2[C@H](C(=O)Nc3nc(Br)ccc3C)C[C@@]3(CO)C[C@@H]23)c2c(C)cc(-c3cnc(CO)nc3)cc12 [Compound 31] the IC50 was under 1000 nM.

Same assay, conditions: Human Factor D 80 nM, substrate Z-L-Lys-SBzl; Table 2; read-out: IC50 (Stars)
For CCCC(C)(C)CNC(=O)[C@@H]1C[C@@]2(C)C[C@H]2N1C(=O)Cn1nc(C(C)=O)c2cc(-c3cnc(C)nc3)cc(C)c21 [Compound 116, (1R,3S,5R)-2-{2-[3-acetyl-7-methyl-5-(2-methylpyrimidin-5-yl)indazol-1-yl]acetyl}-N-(2,2-dimethylpentyl)-5-methyl-2-azabicyclo[3.1.0]hexane-3-carboxamide], the IC50 was under 1000 nM.
CC(=O)c1cn(CC(=O)N2[C@H](C(=O)Nc3nc(Br)c(F)cc3C)C[C@@]3(C)C[C@@H]23)c2c(C3CC3)cc(-c3cnc(C)nc3)cc12 [Compound 162] showed an IC50 of under 1000 nM.
CC(=O)c1cn(CC(=O)N2[C@H](C(=O)Nc3nc(Br)ccc3C)C[C@@]3(C)C[C@@H]23)c2c(C)cc(-c3cnc(C(C)O)nc3)cc12 (stereo partly drawn) [Compound 157, (1R,3S,5R)-2-(2-(3-acetyl-5-(2-(1-hydroxyethyl)pyrimidin-5-yl)-7-methyl-1H-indol-1-yl)acetyl)-N-(6-bromo-3-methylpyridin-2-yl)-5-methyl-2-azabicyclo[3.1.0]hexane-3-carboxamide] showed an IC50 of under 1000 nM.
With CC(=O)c1cn(CC(=O)N2[C@H](C(=O)Nc3nc(C(F)(F)F)ccc3C)C[C@@]3(C)C[C@@H]23)c2c(C)cc(-c3cnc4cc(CF)nn4c3)cc12 [Compound 228, (1R,3S,5R)-2-(2-(3-acetyl-5-(2-(fluoromethyl)pyrazolo[1,5-a]pyrimidin-6-yl)-7-methyl-1H-indol-1-yl)acetyl)-5-methyl-N-(3-methyl-6-(trifluoromethyl)pyridin-2-yl)-2-azabicyclo[3.1.0]hexane-3-carboxamide] the IC50 was under 1000 nM.
Work on CC(=O)c1nn(CC(=O)N2[C@H](C(=O)Nc3nc(Br)ccc3C)C[C@@]3(C)C[C@@H]23)c2c(C)cc(-c3cnc(CO)cn3)cc12 [Compound 127, (1R,3S,5R)-2-(2-(3-acetyl-5-(5-(hydroxymethyl)pyrazin-2-yl)-7-methyl-1H-indazol-1-yl)acetyl)-N-(6-bromo-3-methylpyridin-2-yl)-5-methyl-2-azabicyclo[3.1.0]hexane-3-carboxamide] yielded an IC50 of under 1000 nM.
CC(=O)c1nn(CC(=O)N2C[C@H]3C[C@H]3[C@H]2C(=O)Nc2nc(Br)ccc2C)c2ccc(-c3cncc(S(N)(=O)=O)c3)cc12 [Compound 69, (1R,2S,5S)-3-(2-(3-Acetyl-5-(5-sulfamoylpyridin-3-yl)-1H-indazol-1-yl)acetyl)-N-(6-bromo-3-methylpyridin-2-yl)-3-azabicyclo[3.1.0]hexane-2-carboxamide] was tested, and the IC50 was under 1000 nM.
CC(=O)c1cn(CC(=O)N2[C@H](C(=O)Nc3nccc(C(F)(F)F)n3)C[C@@]3(C)C[C@@H]23)c2c(C)cc(-c3cnc(C)nc3)cc12 [Compound 235, (1R,3S,5R)-2-(2-(3-acetyl-7-methyl-5-(2-methylpyrimidin-5-yl)-1H-indol-1-yl)acetyl)-5-methyl-N-(4-(trifluoromethyl)pyrimidin-2-yl)-2-azabicyclo[3.1.0]hexane-3-carboxamide] showed an IC50 of under 1000 nM.

— patent publication US20230022157A1 (Achillion Pharmaceuticals, Inc., priority 2018, published 2023)
